# Biological target: T1, BTK (Homo sapiens, UniProt Q06187)
# T1 construct: The GM01501.3 cell line endogenously expresses BTK with a HiBiT fusion tag via CRISPR knock-in at its C-terminal region; endogenous in cells; host or cells: GM01501.3 (GM01501 cells engineered by CRISPR knock-in of HiBiT at the BTK locus)
# Experiment: BTK degradation assay using the HiBiT Method (Nano-Glo HiBiT Lytic Assay, GM01501.3 cells)
# Format: cell-based
# Details: HiBiT Degradation on GM01501.3 BTK @ 6 hours
# Method in brief: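 Degradation read-out: HiBiT luminescence after lytic reagent addition, giving DC50. Compounds dosed from 10 μM in 11 half-log steps (duplicate) onto GM01501.3 cells, whose endogenous BTK carries a C-terminal HiBiT knock-in tag; 6 h exposure, 37 °C, 5% CO2.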
# T1 sequence (Q06187 whole entry, the tested form may be a part): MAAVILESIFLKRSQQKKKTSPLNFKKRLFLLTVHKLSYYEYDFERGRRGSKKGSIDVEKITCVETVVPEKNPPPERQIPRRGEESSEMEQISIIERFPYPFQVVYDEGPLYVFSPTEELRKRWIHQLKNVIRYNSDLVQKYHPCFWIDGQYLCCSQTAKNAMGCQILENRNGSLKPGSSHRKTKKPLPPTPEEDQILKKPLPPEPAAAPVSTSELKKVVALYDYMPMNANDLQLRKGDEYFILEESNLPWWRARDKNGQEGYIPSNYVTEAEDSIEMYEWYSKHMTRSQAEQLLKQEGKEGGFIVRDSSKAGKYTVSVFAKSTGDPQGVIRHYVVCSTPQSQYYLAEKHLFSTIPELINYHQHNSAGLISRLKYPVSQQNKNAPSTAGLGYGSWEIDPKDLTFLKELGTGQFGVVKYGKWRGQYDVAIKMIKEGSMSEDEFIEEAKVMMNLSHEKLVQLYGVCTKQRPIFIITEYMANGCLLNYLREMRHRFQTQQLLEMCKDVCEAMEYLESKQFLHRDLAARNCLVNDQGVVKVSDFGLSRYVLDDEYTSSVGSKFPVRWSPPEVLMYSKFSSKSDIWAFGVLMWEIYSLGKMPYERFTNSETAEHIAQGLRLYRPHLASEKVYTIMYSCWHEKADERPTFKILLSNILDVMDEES
row,DC50 [nM],SMILES
1,< 100,"COc1ccc(C(=O)NCc2ccc(-c3ncnn4cc(-c5ccc(CN6CCC(c7ccc(NC8CCC(=O)NC8=O)cc7)CC6)cc5)cc34)cc2C)cc1 (stereo not drawn) [Example 66, N-[[4-[6-[4-[[4-[4-[(2,6-dioxo-3-piperidyl)amino]phenyl]-1-piperidyl]methyl]phenyl]pyrrolo[2,1-f][1,2,4]triazin-4-yl]-2-methyl-phenyl]methyl]-4-methoxy-benzamide]"
2,< 100,"Cc1cc(-c2ncnn3cc(-c4ccc5c(c4)CN(CCCc4ccc(NC6CCC(=O)NC6=O)cc4)C5)cc23)ccc1CNC(=O)c1noc(C(C)(C)C)n1 (stereo not drawn) [Example 57, 5-tert-butyl-N-[[4-[6-[2-[3-[4-[(2,6-dioxo-3-piperidyl)amino]phenyl]propyl]isoindolin-5-yl]pyrrolo[2,1-f][1,2,4]triazin-4-yl]-2-methyl-phenyl]methyl]-1,2,4-oxadiazole-3-carboxamide]"
3,< 100,"Cc1cc(-c2ncnn3cc(CCCN4CCC(c5ccc(NC6CCC(=O)NC6=O)cc5)CC4)cc23)ccc1CNC(=O)c1noc(C(C)(C)C)n1 (stereo not drawn) [Example 127, 5-tert-butyl-N-[[4-[6-[3-[4-[4-[(2,6-dioxo-3-piperidyl)amino]phenyl]-1-piperidyl]propyl]pyrrolo[2,1-f][1,2,4]triazin-4-yl]-2-methyl-phenyl]methyl]-1,2,4-oxadiazole-3-carboxamide]"
4,< 100,"COc1cc(-c2ncnn3cc(-c4ccc(CN5CCC(c6ccc(NC7CCC(=O)NC7=O)cc6)CC5)cc4)cc23)ccc1CNC(=O)c1noc(C(C)(C)C)n1 (stereo not drawn) [Example 47, 5-tert-butyl-N-[[4-[6-[4-[[4-[4-[(2,6-dioxo-3-piperidyl)amino]phenyl]-1-piperidyl]methyl]phenyl]pyrrolo[2,1-f][1,2,4]triazin-4-yl]-2-methoxy-phenyl]methyl]-1,2,4-oxadiazole-3-carboxamide]"
5,< 100,"Cc1cc(-c2ncnn3cc(-c4ccc(CN5CCC(c6ccc(NC7CCC(=O)NC7=O)cc6)CC5)cc4)cc23)ccc1CNC(=O)c1coc(C(C)(C)C)n1 (stereo not drawn) [Example 78, 2-tert-butyl-N-[[4-[6-[4-[[4-[4-[(2,6-dioxo-3-piperidyl)amino]phenyl]-1-piperidyl]methyl]phenyl]pyrrolo[2,1-f][1,2,4]triazin-4-yl]-2-methyl-phenyl]methyl]oxazole-4-carboxamide]"
6,< 100,"CC(C)(C)c1nc(C(=O)NCc2ccc(-c3ncnn4cc(-c5ccc(CN6CCC(c7ccc(NC8CCC(=O)NC8=O)cn7)CC6)c(F)c5)cc34)cc2F)no1 (stereo not drawn) [Example 222, 5-(tert-butyl)-N-(4-(6-(4-((4-(5-((2,6-dioxopiperidin-3-yl)amino)pyridin-2-yl)piperidin-1-yl)methyl)-3-fluorophenyl)pyrrolo[2,1-f][1,2,4]triazin-4-yl)-2-fluorobenzyl)-1,2,4-oxadiazole-3-carboxamide]"
7,< 100,"Cc1cc(-c2ncnn3cc(C4CC4CN4CCC(c5ccc(NC6CCC(=O)NC6=O)cc5)CC4)cc23)ccc1CNC(=O)c1noc(C(C)(C)C)n1 (stereo not drawn) [Example 145, 5-tert-butyl-N-[[4-[6-[2-[[4-[4-[(2,6-dioxo-3-piperidyl)amino]phenyl]-1-piperidyl]methyl]cyclopropyl]pyrrolo[2,1-f][1,2,4]triazin-4-yl]-2-methyl-phenyl]methyl]-1,2,4-oxadiazole-3-carboxamide]"
8,< 100,"Cc1cc(-c2ncnn3cc(-c4ccc(CN5CCC(c6ccc7c(N8CCC(=O)NC8=O)nn(C)c7c6)CC5)cc4F)cc23)ccc1CNC(=O)c1noc(C(C)(C)C)n1 [Example 246, 5-(tert-butyl)-N-(4-(6-(4-((4-(3-(2,4-dioxotetrahydropyrimidin-1(2H)-yl)-1-methyl-1H-indazol-6-yl)piperidin-1-yl)methyl)-2-fluorophenyl)pyrrolo[2,1-f][1,2,4]triazin-4-yl)-2-methylbenzyl)-1,2,4-oxadiazole-3-carboxamide]"
9,< 100,"Cc1cc(-c2ncnn3cc(-c4ccc(CN5CCC(c6ccc(C7CCC(=O)NC7=O)cc6)CC5)cc4)cc23)ccc1CNC(=O)c1noc(C(C)(C)C)n1 (stereo not drawn) [Example 4, 5-tert-butyl-N-[[4-[6-[4-[[4-[4-(2,6-dioxo-3-piperidyl)phenyl]-1-piperidyl]methyl]phenyl]pyrrolo[2,1-f][1,2,4]triazin-4-yl]-2-methyl-phenyl]methyl]-1,2,4-oxadiazole-3-carboxamide]"
10,< 100,"Cc1cc(-c2ncnn3cc(-c4ccc5c(c4)CN(CCc4ccc(NC6CCC(=O)NC6=O)cc4)C5)cc23)ccc1CNC(=O)c1noc(C(C)(C)C)n1 (stereo not drawn) [Example 55, 5-tert-butyl-N-[[4-[6-[2-[2-[4-[(2,6-dioxo-3-piperidyl)amino]phenyl]ethyl]isoindolin-5-yl]pyrrolo[2,1-f][1,2,4]triazin-4-yl]-2-methyl-phenyl]methyl]-1,2,4-oxadiazole-3-carboxamide]"
11,100 to 500,"Cc1cc(-c2ncnn3cc(-c4ccc(N5CCC(c6ccc(C7CCC(=O)NC7=O)cc6)CC5)cc4)cc23)ccc1CNC(=O)c1noc(C(C)(C)C)n1 (stereo not drawn) [Example 146, 5-tert-butyl-N-[[4-[6-[4-[4-[4-(2,6-dioxo-3-piperidyl)phenyl]-1-piperidyl]phenyl]pyrrolo[2,1-f][1,2,4]triazin-4-yl]-2-methyl-phenyl]methyl]-1,2,4-oxadiazole-3-carboxamide]"
12,< 100,"Cc1cc(-c2ccnn3cc(CCCCN4CCC(c5ccc(NC6CCC(=O)NC6=O)cc5)CC4)cc23)ccc1CNC(=O)c1noc(C(C)(C)C)n1 (stereo not drawn) [Example 156, 5-tert-butyl-N-[[4-[6-[4-[4-[4-[(2,6-dioxo-3-piperidyl)amino]phenyl]-1-piperidyl]butyl]pyrrolo[1,2-b]pyridazin-4-yl]-2-methyl-phenyl]methyl]-1,2,4-oxadiazole-3-carboxamide]"
13,100 to 500,"CC1c2cc(OC3CCC(=O)NC3=O)ccc2CCN1Cc1ccc(-c2cc3c(-c4ccc(CNC(=O)c5noc(C(C)(C)C)n5)c(F)c4)ncnn3c2)nc1 (stereo not drawn) [Example 232, 5-(tert-butyl)-N-(4-(6-(5-((7-((2,6-dioxopiperidin-3-yl)oxy)-1-methyl-3,4-dihydroisoquinolin-2(1H)-yl)methyl)pyridin-2-yl)pyrrolo[2,1-f][1,2,4]triazin-4-yl)-2-fluorobenzyl)-1,2,4-oxadiazole-3-carboxamide]"
14,< 100,"Cc1cc(-c2ncnn3cc(CCN4CCC(c5ccc6c(C7CCC(=O)NC7=O)nn(C)c6c5)CC4)cc23)ccc1CNC(=O)c1noc(C(C)(C)C)n1 (stereo not drawn) [Example 255, 5-(tert-butyl)-N-(4-(6-(2-(4-(3-(2,6-dioxopiperidin-3-yl)-1-methyl-1H-indazol-6-yl)piperidin-1-yl)ethyl)pyrrolo[2,1-f][1,2,4]triazin-4-yl)-2-methylbenzyl)-1,2,4-oxadiazole-3-carboxamide]"
15,< 100,"Cc1cc(-c2ncnn3cc(-c4ccc(CN5CCC(c6ccc(NC7CCC(=O)NC7=O)cc6C(F)(F)F)CC5)cc4)cc23)ccc1CNC(=O)c1noc(C(C)(C)C)n1 (stereo not drawn) [Example 27, 5-tert-butyl-N-[[4-[6-[4-[[4-[4-[(2,6-dioxo-3-piperidyl)amino]-2-(trifluoromethyl)phenyl]-1-piperidyl]methyl]phenyl]pyrrolo[2,1-f][1,2,4]triazin-4-yl]-2-methyl-phenyl]methyl]-1,2,4-oxadiazole-3-carboxamide]"
16,< 100,"Cc1cc(-c2ncnn3cc(-c4ccc(CN5CCC(c6ccc(NC7CCC(=O)NC7=O)cc6)C(F)(F)C5)cc4)cc23)ccc1CNC(=O)c1noc(C(C)(C)C)n1 (stereo not drawn) [Example 240, 5-(tert-butyl)-N-(4-(6-(4-((4-(4-((2,6-dioxopiperidin-3-yl)amino)phenyl)-3,3-difluoropiperidin-1-yl)methyl)phenyl)pyrrolo[2,1-f] [1,2,4]triazin-4-yl)-2-methylbenzyl)-1,2,4-oxadiazole-3-carboxamide]"
17,< 100,"Cc1cc(-c2ncnn3cc(CCCCN4CCC(c5ccc(N6CCC(=O)NC6=O)cc5)CC4)cc23)ccc1CNC(=O)c1noc(C(C)(C)C)n1 [Example 129, 5-tert-butyl-N-[[4-[6-[4-[4-[4-(2,4-dioxohexahydropyrimidin-1-yl)phenyl]-1-piperidyl]butyl]pyrrolo[2,1-f][1,2,4]triazin-4-yl]-2-methyl-phenyl]methyl]-1,2,4-oxadiazole-3-carboxamide]"
18,< 100,"Cc1cc(-c2ncnn3cc(-c4ccc(OCCCCCCN5CCC(c6ccc(NC7CCC(=O)NC7=O)cc6)CC5)cc4)cc23)ccc1CNC(=O)c1noc(C(C)(C)C)n1 (stereo not drawn) [Example 114, 5-tert-butyl-N-[[4-[6-[4-[6-[4-[4-[(2,6-dioxo-3-piperidyl)amino]phenyl]-1-piperidyl]hexoxy]phenyl]pyrrolo[2,1-f][1,2,4]triazin-4-yl]-2-methyl-phenyl]methyl]-1,2,4-oxadiazole-3-carboxamide]"
19,< 100,Cc1cc(-c2ncnn3cc(CCN4CCC(c5ccc6c(N7CCC(=O)NC7=O)nn(C)c6c5)CC4)cc23)ccc1CNC(=O)c1cn(C(C)(C)C)nn1 [Example 271]
20,< 100,"Cc1cc(-c2ncnn3cc(CCN4CC[C@H](c5ccc6c(N7CCC(=O)NC7=O)nn(C)c6c5)C4)cc23)ccc1CNC(=O)c1noc(C(C)(C)C)n1 (single isomer, unassigned) [Example 265]"
21,< 100,"Cc1cc(-c2ncnn3cc(N4CCN(C(=O)[C@@H]5CCC[C@H](NC(=O)c6ccc(OC7CCC(=O)NC7=O)cc6)C5)CC4)cc23)ccc1CNC(=O)c1noc(C(C)(C)C)n1 (stereo partly drawn) [Example 188, 5-(tert-butyl)-N-(4-(6-(4-((1R,3S)-3-(4-((2,6-dioxopiperidin-3-yl)oxy)benzamido)cyclohexane-1-carbonyl)piperazin-1-yl)pyrrolo[2,1-f][1,2,4]triazin-4-yl)-2-methylbenzyl)-1,2,4-oxadiazole-3-carboxamide]"

# Source: US20240287076A1, “COMPOUNDS FOR TARGETING DEGRADATION OF BRUTON'S TYROSINE KINASE” (BIOGEN MA INC., priority 2021, published 2024)
